# Assay results published in PubChem BioAssay AID686920 (Broad Institute, 2013).
# Active and inactive are the calls of the source.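 Rule for the calls: active = fitted curve reaching 35% inhibition at a dose no higher than twice the top valid tested dose; inconclusive = flat fit with 30 to 70% inhibition, or a poor fit; inactive = the rest, including activity in the opposite direction.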
# System: A673 NR0B1-luciferase reporter, viability-normalised luminescence
# Test: suppressors of NR0B1-promoter luciferase reporter, dose response, EWS/Fli inhibitor project, luciferase luminescence, A673 cells, cherry-pick (AID 686920)
row,Structure (SMILES),AC35
1,COC(=O)COc1ccc(-c2nccc(-c3ccccn3)n2)cc1,1.5 µM
2,CCCC[C@@H]1Cc2[nH][nH]c(=O)c2[C@H](c2ccc3ccccc3c2)O1,11.8 µM
3,C[C@H]1CN([C@@H](C)CO)S(=O)(=O)c2ccc(C#Cc3ccncc3)cc2O[C@@H]1CN(C)S(=O)(=O)c1ccccc1,24.4 µM
4,COc1ccc([Si](C)(C)[C@H]2[C@H](CCO)O[C@@]3(C(=O)N(c4ccccc4)c4ccccc43)[C@@H]2C)cc1,7.79 µM
5,N#C[C@H]1N[C@H](CO)[C@H]1c1ccc(C#Cc2ccc(F)cc2)cc1,0.123 µM
6,N#CC1=C(N)Oc2cc(N)ccc2C1c1cccc(F)c1 (configuration not stated),1.96 µM
7,O=c1c2ccccc2oc2ccc(C#CC3(O)CCCCC3)cc12,14.1 µM
8,O=C(N/N=C/c1cccs1)c1n[nH]c2c1CCCC2,4.03 µM
9,O=S(=O)(c1ccc(F)cc1)N1C[C@H]2[C@@H](c3ccccc31)[C@H](CO)N2Cc1ccccc1Cl,33.7 µM
10,COc1ccc(-c2nc3c(s2)CCc2onc(-c4ccc(OC)cc4)c2-3)cc1,7.59 µM
11,Nc1nc(=S)c2ncn([C@@H]3O[C@H](CO)[C@@H](O)[C@H]3O)c2[nH]1,4.88 µM
12,C[C@H]1CN([C@@H](C)CO)C(=O)c2cc(NC(=O)C3CCCCC3)ccc2O[C@H]1CN(C)Cc1ccc(C(=O)Nc2ccccc2N)cc1,4.8 µM
13,CCc1ccc(/C=C2\SC(=S)N(CCCC(=O)Nc3cc(C)on3)C2=O)cc1,0.947 µM
14,CCCCc1c(Cc2ccccc2)ncn1CCc1ccccc1OC,20.8 µM
15,C[C@@H]1CN([C@@H](C)CO)C(=O)c2cccc(NS(=O)(=O)c3ccccc3)c2O[C@@H]1CN(C)Cc1ccc(C(=O)Nc2ccccc2N)cc1,5.67 µM
16,O=C1NC(=O)N(c2ccccc2)C(=O)/C1=C\C=C\c1ccccc1,8.31 µM
17,C=C1C(=O)O[C@@H]2[C@H]1[C@@H](OC(=O)/C(C)=C/C)C/C(C)=C\C(=O)/C=C(\C)[C@@H]2O,8.09 µM
18,CCn1c(C)cc(C(=O)CN2C(=O)c3ccccc3S2(=O)=O)c1C,1.23 µM
19,Cc1nc(N)nc(N)c1-c1ccc(Cl)c(Cl)c1,0.495 µM
20,COc1cc(-c2coc3c(C(=O)NCc4ccc(C(F)(F)F)cc4)cccc23)ccc1O,2.21 µM
21,Cc1nn(-c2ccc(F)cc2)c2nc(N)c(C#N)c(-c3ccc(O)c(O)c3)c12,22.2 µM
22,CN(CCO)c1ccc(/C=N/Nc2nncc3ccccc23)cc1,5.2 µM
23,COc1ccc(C(C)(O)c2nc(-c3cccc(F)c3)cs2)cc1 (configuration not stated),8.04 µM
24,O=C(CCCN1C(=O)/C(=C/c2ccccc2Cl)SC1=S)NNC(=O)c1ccc(Cl)cc1Cl,3.4 µM
25,COc1ccc(/C=C/C(=O)c2ccc(C(=O)/C=C/c3ccc(OC)c(OC)c3)cc2)cc1OC,6.78 µM

row,Structure (SMILES),AC35
1,O=C(CN1C(=O)C(=O)c2ccccc21)c1ccc(Cl)cc1,34.2 µM
2,C(=Cc1cnc2ccccc2n1)c1ccc2c(c1)OCO2,1.12 µM
3,Cc1ccc(/C=C2\SC(=S)N(CCCC(=O)NNC(=O)c3ccccc3O)C2=O)cc1,2.09 µM
4,CN(C)c1ccc(N=Nc2ccccc2Br)cc1,21.3 µM
5,COc1ccc(C2=Nn3c([n+](C)c4ccccc43)SC2)cc1,46.5 µM
6,COc1ccc(S(=O)(=O)N=Nc2c(O)[nH]c3ccccc23)cc1,34.7 µM
7,O=C(CCc1ccccc1)NC(c1cccs1)c1cc(Cl)c2cccnc2c1O (configuration not stated),5.42 µM
8,CC(=O)N1CCCC(c2cc(C(=O)Nc3ccccc3)no2)C1 (configuration not stated),2.06 µM
9,CCCCC[C@H](C)N1C[C@H](COCc2ccccc2)Oc2cc(N3CC[C@@H](N(C)C)C3)ccc2S1(=O)=O,34.7 µM
10,COc1ccc(CNc2ncc(-c3ccc(F)cc3)n2C)c2ccccc12,6.93 µM
11,Cc1cc(C)c2sc(NNC(=O)c3ccc(S(=O)(=O)N4CCc5ccccc5C4)cc3)nc2c1,5.12 µM
12,O=C(C[C@@H]1CC[C@@H]2[C@H](COC[C@@H](O)CN2S(=O)(=O)c2ccc(F)cc2)O1)NCc1ccc(Cl)c(Cl)c1,61.8 µM
13,CC(=O)OC1CC2(O)C3CCC4CC(O)CCC4(C)C3CCC2(C)C1C1=CC(=O)OC1 (configuration not stated),0.231 µM
14,CCCc1cc(=O)oc2c3c(c4c(c12)OC(C)(C)C=C4)OC(C)C(C)C3O (configuration not stated),33.3 µM
15,CCCCNC1=CC(=O)C(=O)c2ccccc21,6.17 µM
16,COc1cc2oc3cc(C#Cc4ccc(N)cc4)ccc3c(=O)c2cc1OC,10.3 µM
17,O=C1CCC2S/C(=C/Nc3ccc(C(F)(F)F)cc3)C(=O)N12 (configuration not stated),0.385 µM
18,COc1cc2c(cc1NC(=O)CN(C)Cc1ccc(OC)c(OC)c1)oc1ccccc12,8.33 µM
19,CC(=O)Nc1ccc(S(=O)(=O)Nc2ccc(N3CCCCC3)cc2)cc1,8.66 µM
20,Cc1cc(C(=O)CN2C(=O)c3ccccc3S2(=O)=O)c(C)n1C(C)C,3.04 µM
21,CCc1cnc(N2[C@H](C#N)[C@H](c3ccc(C#Cc4ccccc4F)cc3)[C@H]2CO)s1,9.23 µM
22,C[C@@H]1CN([C@@H](C)CO)C(=O)Cc2cc(NC(=O)C3CCCCC3)ccc2O[C@H]1CN(C)Cc1ccc(C(=O)Nc2ccccc2N)cc1,29.1 µM
23,CC1(C)Oc2cc3oc(-c4cc(O)cc(O)c4)cc3cc2CC1O (configuration not stated),2.07 µM
24,CCN1C/C(=C/c2ccc(OC)c(O)c2)C(=O)/C(=C/c2ccc(OC)c(O)c2)C1,17.3 µM
25,N#C[C@H]1[C@H](c2ccc(-c3ccccc3F)cc2)[C@@H](CO)N1C(=O)Cc1ccccc1,3.31 µM

row,Structure (SMILES),AC35
1,Cc1cc(C)cc(C(=O)NC(=S)Nc2ccc(Cc3ccncc3)cc2)c1,7.99 µM
2,O=C(NCc1ccc(F)cc1)N1[C@H]2CC[C@@H]1C=C(c1ccc(F)cc1OCc1ccccc1)C2,9.93 µM
3,O=C(NC1CCCC1)C(c1ccccc1)n1c(CSCCOc2ccccc2)nc2ccccc21 (configuration not stated),2.19 µM
4,O=c1[nH]c(/C=C2\C=Nc3ccccc32)c(O)n1Cc1ccccc1F,4.21 µM
5,Cc1cc(Br)ccc1N=C1C(=O)Nc2ccccc21,5.12 µM
6,BrC(=C\c1ccccc1)/C=N/n1cnnc1,7.17 µM
7,O=C(O)c1ccc(N/N=C/c2ccc3c(c2)OCO3)cc1,0.644 µM
8,CCCCc1c(-c2ccccc2OC)ncn1Cc1ccc(C(C)(C)C)cc1,10 µM
9,O=C(/C=C/c1ccc(Cl)cc1Cl)N(Cc1ccc(Cl)cc1)C1CCS(=O)(=O)C1 (configuration not stated),33.5 µM
10,O=C(c1cccc(S(=O)(=O)NCc2ccccc2)c1)N1CCN(c2ccccc2)CC1,11.6 µM
11,COC(=O)C[C@@H]1CC[C@@H]2[C@H](COc3ccc(NC(=O)c4ccccc4)cc3C(=O)N2C)O1,53.4 µM
12,Nc1nc(N)c(-c2cccc(C(F)(F)F)c2)c(Cc2cccc(C(F)(F)F)c2)n1,2.54 µM
13,COc1cc2c(OC(C)=O)c3c(c(-c4ccc5c(c4)OCO5)c2cc1OC)C(=O)OC3,2.34 µM
14,CC(C)Oc1ccc(Br)cc1C(=O)N/N=C/c1c[nH]c2ccccc12,17.2 µM
15,COc1cccc(OC)c1C(=O)Nc1cc(C)nn1-c1nc2ccccc2[nH]1,26.7 µM
16,CN1c2ccc(-c3ccc(C#N)cc3)cc2[C@H]2[C@H](CCN2S(=O)(=O)c2cccc(F)c2)[C@@H]1CO,4.64 µM
17,C[C@]12CC[C@H](O)C[C@H]1CC[C@@H]1C2CC[C@]2(C)[C@@H](C3=CC(=O)OC3)[C@@H](O)C[C@]12O (some centres not stated),2.86 µM
18,C[C@@H]1CN([C@H](C)CO)C(=O)Cc2cc(NC(=O)CCCCCC(=O)Nc3ccccc3N)ccc2O[C@@H]1CN(C)CC1CCCCC1,7.74 µM
19,Cc1ccc(S(=O)(=O)Nc2ccc3c(c2)C(=O)N([C@H](C)CO)C[C@H](C)[C@@H](CN(C)Cc2ccc(C(F)(F)F)cc2)OCCCC[C@H](C)O3)cc1,11.5 µM
20,Nc1sc(-c2ccccc2)cc1-c1n[nH]c(=S)n1C1CCCCC1,3.67 µM
21,CCOc1ccc(-c2cc(CCCC(=O)N3CCN(c4ccc(OC)cc4)CC3)no2)cc1,27.6 µM
22,N#CC1=C(N)Oc2cc(N)ccc2C1c1cccc(Br)c1 (configuration not stated),0.542 µM
23,Nc1ccc(Oc2cccc(Oc3ccc(N)cc3)c2)cc1,1.15 µM
24,O=c1oc2cc(O)ccc2s1,11.8 µM
25,O=C(CCCN1C(=O)S/C(=C\c2ccccc2)C1=O)NNC(=O)c1ccccc1O,4.38 µM

row,Structure (SMILES),AC35
1,O=C1NC(=S)NC(=O)C1=Cc1cccn1-c1ccc(O)cc1,19.9 µM
2,CCc1ccc(/C=C2\SC(=S)N(CCC(=O)Nc3cc(C)on3)C2=O)cc1,6.38 µM
3,CN(C)C(=O)c1cccc(-c2ccc(C3[C@@H]4CN(Cc5nccs5)C[C@H]3N4)cc2)c1 (some centres not stated),> 68 µM (inactive)
4,C[C@H]1CN([C@@H](C)CO)C(=O)Cc2cc(NC(=O)CCCCCC(=O)Nc3ccccc3N)ccc2O[C@H]1CN(C)Cc1ccc(C(F)(F)F)cc1,6.15 µM
5,CN(C)c1ccc(-c2ccnc3c2CC(C)(C(=O)NCc2ccco2)O3)cc1 (configuration not stated),6.85 µM
6,O=C1NC(=O)N(Cc2ccc(F)cc2)C(=O)/C1=C\C=C\c1ccco1,7.32 µM
7,Cc1cccc(CN2C(=O)/C(=C\c3ccc(C(=O)NCCCN4CCN(C)CC4)cc3)Oc3ccccc32)c1,11.6 µM
8,Cc1cc2sc3ccc(C#CC4(O)CCCCC4)cc3c(=O)c2cc1C,< 0.03 µM
9,C[C@@H]1CN([C@@H](C)CO)C(=O)c2cc(NC(=O)c3ccccc3)ccc2O[C@@H](C)CCCCO[C@H]1CN(C)C(=O)Nc1cccc2ccccc12,0.873 µM
10,Cc1nc(N)nc(N)c1CCCc1ccc(Cl)c(Cl)c1,2.49 µM
11,Cc1ccc(C(C(=O)NCc2ccco2)N(C(=O)CNC(=O)c2cccs2)c2c(C)cc(C)cc2C)cc1 (configuration not stated),42 µM
12,C[C@H](CO)N1C[C@H](C)[C@H](CN(C)Cc2ccc(C(F)(F)F)cc2)Oc2ccc(NC(=O)CCCCCC(=O)Nc3ccccc3N)cc2CC1=O,6.04 µM
13,COc1ccc2oc(C(=O)NCCc3ccccc3)c(C)c2c1,6.25 µM
14,CCc1ccc(N2C=C(C(=O)OC)C(c3ccc(OC)cc3)C(C#N)=C2N)cc1 (configuration not stated),5.38 µM
15,COc1cc(/C=N/NS(=O)(=O)c2ccc3ccccc3c2)ccc1OCc1ccc(C(=O)O)cc1,2.91 µM
16,C[C@@H]1CN([C@@H](C)CO)C(=O)c2cccc(NC(=O)Nc3cccc4ccccc34)c2O[C@@H]1CN(C)Cc1ccc(C(=O)Nc2ccccc2N)cc1,10.2 µM
17,O=C1c2ccccc2C(=O)c2cc(N3CCCCC3)ccc21,2.65 µM
18,C/C(=N\OCc1cccc(C(=O)O)c1)c1ccc(Cl)cc1,0.832 µM
19,C[C@H]1CCCCO[C@H](CN(C)Cc2ccc(C(F)(F)F)cc2)[C@@H](C)CN([C@@H](C)CO)C(=O)c2cc(NC(=O)Nc3ccccc3)ccc2O1,19.4 µM
20,Cc1cc(C(=O)Nc2ccc3c(c2)C(=O)N(C)[C@@H]2CC[C@H](CC(=O)N[C@H](C)c4ccccc4)O[C@H]2CO3)no1,10.2 µM
21,CCN1CCN(/C=N/c2nc3c(s2)CCCC3)CC1,7.97 µM
22,COc1ccc(-c2ccc3c(c2)[C@H]2[C@H](CCN2S(=O)(=O)c2ccc(OC)cc2)[C@@H](CO)N3C)cc1,4.45 µM
